# Data: patent publication US10947188B2, “Small molecule ferroptosis inducers” (THE TRUSTEES OF COLUMBIA UNIVERSITY IN THE CITY OF NEW YORK, priority 2016, dated 2021)
# System: BJeLR
# Assay: Modulatory profiling: Alamar Blue viability, lethal compound cotreated with death modulator (EC50, AUC); as to AUC, modulator BJ.3MA: reference of the scale not given here; as to AUC, modulator BJ.ALLN: reference of the scale not given here; as to AUC, modulator BJ.Boc D: reference of the scale not given here; as to AUC, modulator BJ.CHX: reference of the scale not given here; as to AUC, modulator BJ.Co2+: reference of the scale not given here; as to AUC, modulator BJ.DPQ: reference of the scale not given here; as to AUC, modulator BJ.Gd3+: reference of the scale not given here; as to AUC, modulator BJ.LNAME: reference of the scale not given here; as to AUC, modulator BJ.NAD+: reference of the scale not given here; as to AUC, modulator BJ.NMMA: reference of the scale not given here; as to AUC, modulator BJ.Nec-1: reference of the scale not given here; as to AUC, modulator BJ.Pepstatin: reference of the scale not given here; as to AUC, modulator BJ.TLCK: reference of the scale not given here
# Format: cell-based, human
# Design: AUC, modulator BJ.Gd3+ / AUC, modulator BJ.LNAME / AUC, modulator BJ.Lmin / AUC, modulator BJ.3MA / AUC, modulator BJ.ALLN / AUC, modulator BJ.Boc D / AUC, modulator BJ.CHX / AUC, modulator BJ.Co2+ / AUC, modulator BJ.Nec-1 / AUC, modulator BJ.Pepstatin / AUC, modulator BJ.TLCK / AUC, modulator BJ.atoc / AUC, modulator BJ.trolox / AUC, modulator BJ.zVAD: unit not given beside the values
# Conditions: for AUC, modulator BJ.3MA / AUC, modulator BJ.ALLN / AUC, modulator BJ.Boc D / AUC, modulator BJ.CHX / AUC, modulator BJ.Co2+ / AUC, modulator BJ.DPQ / AUC, modulator BJ.Gd3+ / AUC, modulator BJ.LNAME / AUC, modulator BJ.Lmin/NAD+ / AUC, modulator BJ.Lmin / AUC, modulator BJ.NAD+ / AUC, modulator BJ.NMMA / AUC, modulator BJ.Nec-1 / AUC, modulator BJ.Pepstatin / AUC, modulator BJ.TLCK / AUC, modulator BJ.atoc / AUC, modulator BJ.trolox / AUC, modulator BJ.zVAD: BJeLR cells, modulatory profile value (AUC); for AUC, modulator BJ.3MA: lethal compound cotreated with modulator 3MA; for AUC, modulator BJ.ALLN: lethal compound cotreated with modulator ALLN; for AUC, modulator BJ.Boc D: lethal compound cotreated with modulator Boc D; for AUC, modulator BJ.CHX: lethal compound cotreated with modulator CHX; for AUC, modulator BJ.Co2+: lethal compound cotreated with modulator Co2+; for AUC, modulator BJ.DPQ: lethal compound cotreated with modulator DPQ; for AUC, modulator BJ.Gd3+: lethal compound cotreated with modulator Gd3+; for AUC, modulator BJ.LNAME: lethal compound cotreated with modulator LNAME; for AUC, modulator BJ.Lmin/NAD+: lethal compound cotreated with modulator Lmin/NAD+; for AUC, modulator BJ.Lmin: lethal compound cotreated with modulator Lmin; for AUC, modulator BJ.NAD+: lethal compound cotreated with modulator NAD+; for AUC, modulator BJ.NMMA: lethal compound cotreated with modulator NMMA; for AUC, modulator BJ.Nec-1: lethal compound cotreated with modulator Nec-1; for AUC, modulator BJ.Pepstatin: lethal compound cotreated with modulator Pepstatin; for AUC, modulator BJ.TLCK: lethal compound cotreated with modulator TLCK; for AUC, modulator BJ.atoc: lethal compound cotreated with modulator atoc; for AUC, modulator BJ.trolox: lethal compound cotreated with modulator trolox; for AUC, modulator BJ.zVAD: lethal compound cotreated with modulator zVAD; for EC50: Homo sapiens, BJeLR, 48 h
Compound,"AUC, modulator BJ.3MA","AUC, modulator BJ.ALLN","AUC, modulator BJ.Boc D","AUC, modulator BJ.CHX","AUC, modulator BJ.Co2+","AUC, modulator BJ.DPQ","AUC, modulator BJ.Gd3+","AUC, modulator BJ.LNAME","AUC, modulator BJ.Lmin/NAD+","AUC, modulator BJ.Lmin","AUC, modulator BJ.NAD+","AUC, modulator BJ.NMMA","AUC, modulator BJ.Nec-1","AUC, modulator BJ.Pepstatin","AUC, modulator BJ.TLCK","AUC, modulator BJ.atoc","AUC, modulator BJ.trolox","AUC, modulator BJ.zVAD",other results
C[S+]([O-])c1nc(-c2ccc(Br)cc2)cc(-c2ccccc2)c1C#N (centres unmarked) [CIL17],0.07927,−0.07478,−0.03116,−0.0462,−0.04764,0.004679,−0.04,−0.008054,−0.03209,−0.02464,−0.01632,−0.01688,0.02959,0.03912,−0.07864,0.006451,−0.001174,−0.02313,
[N-]=[N+]=[N-].[Na+] [NaN3],−0.09559,−0.00382,−0.007273,0.07262,−0.02123,−0.06947,0.01113,−0.01832,−0.007837,−0.08417,0.0696,0.005874,−0.05229,0.01611,0.032,−0.005135,−0.03837,−0.001065,
CCCCNc1c(Cl)cnn(-c2ccccc2)c1=O [CIL36],0.06295,−0.03236,−0.0473,−0.03087,−0.03647,0.1393,0.01469,0.0008728,−0.09403,0.02336,−0.01826,0.03927,−0.1729,−0.01891,−0.04337,0.06822,−0.02322,0.00966,
CC(C)(C)C1CCc2c(sc(NC(=O)CN3CCNCC3)c2C(N)=O)C1 (centres unmarked) [CIL10],0.134,−0.01713,−0.05212,−0.01805,0.1142,−0.02695,0.007922,0.01363,−0.01396,−0.02341,−0.001182,0.006192,0.07272,0.001044,−0.05831,0.0467,0.05527,−0.007333,
O=C1C(Cl)=C(N2CCOCC2)C(=O)C(Cl)=C1N1CCOCC1 [CIL11],0.09004,0.01538,−0.04323,0.1239,0.07771,−0.01566,0.02905,−0.0003217,0.01344,−0.04034,−0.03919,−0.00378,0.02974,0.04125,−0.01155,−0.02082,−0.01782,−0.004517,
O=c1c(Cl)c(Cl)cnn1-c1ccc(Cl)c(C(F)(F)F)c1 [CIL25],0.02374,−0.07209,−0.009758,−0.0273,−0.003244,0.001852,0.04216,−0.004428,0.09246,0.01628,0.06106,0.01683,0.03297,−0.00415,−0.05889,0.02909,−0.001029,0.03879,
Nc1ccccc1NC(=O)c1ccc(CNC(=O)OCc2cccnc2)cc1 [MS275],−0.02606,−0.03932,0.08944,0.2266,0.2326,−0.009656,0.023,0.02321,0.1569,−0.001183,0.1269,−0.003779,−0.01329,−0.01824,0.08474,−0.008452,−0.001137,0.1415,
CCc1ccc(/C=C2/SC(=O)N(CCC(C)NCCCN3CCOCC3)C2=O)cc1 (centres unmarked) [CIL46],0.1884,−0.01374,−0.005903,0.1598,−0.1389,0.03979,−0.05606,−0.02185,0.1825,0.2583,−0.02371,0.03363,0.08455,−0.01313,−0.09715,0.1051,0.04647,−0.05153,
O=C(CCl)N(c1ccccc1)c1c[nH]c2ccccc12 [CIL69],0.07713,−0.0005222,−0.003228,−0.03495,0.1724,0.02521,0.02983,0.005201,0.1449,0.1799,0.02203,−0.02133,0.1721,0.0531,0.1963,,,,EC50 (DMSO): 0.193 µM; EC50 (cotreated with Lmim_NAD): 0.889 µM; EC50 (cotreated with antioxidant Trolox): 2.05 µM; EC50 (cotreated with antioxidant atoc): 1.78 µM; EC50 (cotreated with iron-chelator Lmim): 0.976 µM
CC(/C=C/C(=O)NO)=C\[C@@H](C)C(=O)c1ccc(N(C)C)cc1 [TrichostatinA],−0.004309,−0.08774,0.09612,0.2588,0.3091,−0.009523,−0.008802,−0.04203,0.1597,0.08423,0.05544,−0.01861,−0.04751,−0.01284,0.02879,−0.01806,−0.02672,0.1198,
COc1cccc2c1C(=O)c1c(O)c3c(c(O)c1C2=O)C[C@@](O)(C(C)=O)C[C@@H]3O[C@H]1C[C@H](N)[C@H](O)[C@H](C)O1 [Daunorubicin],0.03793,0.02846,0.03322,0.1497,0.2122,−0.03527,−0.005247,0.005526,0.1434,0.05475,0.1226,−0.01867,−0.02055,0.02539,0.02856,0.004145,−0.02026,0.05594,
